Test results taken from US20070249678A1, “SYNTHESIS AND USES OF PYROGLUTAMIC ACID DERIVATIVES” (Prodimed, S.A., priority 2006, published 2007).

Assay: Solubility observed during purification attempts
Type: physicochemical
Conditions: mixture of stereoisomers
Text: Also, its immediate precursor BLAS-320(Ac) (1-(1-acetyl-3-acetylamino-5-carboxy-2-oxopyrrolidin-3-ylmethyl)pyridinium acetate) [drawing 7] was synthesized using different procedures.

With `CC(=O)NC1(C[n+]2ccccc2)CC(C(=O)O)N(C(C)=O)C1=O` (stereo not shown) [BLAS-320(Ac), 1-(1-acetyl-3-acetylamino-5-carboxy-2-oxopyrrolidin-3-ylmethyl)pyridinium acetate] the “Solubility (in words)” value was “only soluble in water and methanol”.
